Source: PubChem BioAssay AID308 (DTP/NCI, 2004)
Several values for one entry are separate records, joined by “and”; a condition that tells them apart may be missing. Equal values may be shown once. Toxic doses and inconclusive results are not listed. Rule for the calls: active = survival T/C of 150% or more; inactive = T/C below 125% in these data.

Tested on: BDF1 mice, L1210 6-MP/6-TG resistant leukemia ip, survival T/C
Assay: NCI In Vivo Anticancer Drug Screen. Data for tumor model L1210 Leukemia resistant to 6-MP and 6-Thioguanine; NSC 755, NSC 752 (intraperitoneal) in B6D2F1 (BDF1) mice
Conditions: endpoint: mean survival time, higher = longer survival
Description: The antitumor activity of compounds was measured in mice bearing transplantable tumors. Survival or tumor size were measured and the results are expressed as the measurement made in the treated group (T) divided by the measurement made in the vehicle treated control group (C). The tumor model used in this assay is L1210 Leukemia resistant to 6-MP and 6-Thioguanine; NSC 755, NSC 752 (intraperitoneal) in B6D2F1 (BDF1) mice

Measured: T/C

C=CC(CN1CC1)OC(C)=O (configuration not stated)
active: dose: 12.0 mg/kg/injection, schedule: Q01DX Z (ip), vehicle: saline 150 % of control
inactive: dose: 3.0 mg/kg/injection, schedule: Q01DX Z (ip), vehicle: saline 116 % of control | dose: 15.0 mg/kg/injection, schedule: Q01DX Z (ip), vehicle: saline 91 % of control

Cn1c(N)nc2nc[nH]c2c1=S
inactive: dose: 18.75 mg/kg/injection, schedule: Q01DX Z (ip), vehicle: carboxymethylcellulose (CMC) 98 % of control | dose: 37.5 mg/kg/injection, schedule: Q01DX Z (ip), vehicle: carboxymethylcellulose (CMC) 109 % of control | dose: 75.0 mg/kg/injection, schedule: Q01DX Z (ip), vehicle: carboxymethylcellulose (CMC) 109 % of control

Nc1ncnc2c1ccn2C1OC(CO)C(O)C1O (configuration not stated)
inactive: dose: 0.03 mg/kg/injection, schedule: Q01DX Z (ip), vehicle: carboxymethylcellulose (CMC) 99 % of control | dose: 0.06 mg/kg/injection, schedule: Q01DX Z (ip), vehicle: carboxymethylcellulose (CMC) 101 % of control | dose: 0.12 mg/kg/injection, schedule: Q01DX Z (ip), vehicle: carboxymethylcellulose (CMC) 108 % of control | dose: 0.25 mg/kg/injection, schedule: Q01DX Z (ip), vehicle: carboxymethylcellulose (CMC) 104 % of control | dose: 0.5 mg/kg/injection, schedule: Q01DX Z (ip), vehicle: carboxymethylcellulose (CMC) 106 % of control | dose: 1.0 mg/kg/injection, schedule: Q01DX Z (ip), vehicle: carboxymethylcellulose (CMC) 102 % of control | dose: 2.0 mg/kg/injection, schedule: Q01DX Z (ip), vehicle: carboxymethylcellulose (CMC) 98 % of control

N#[N+]c1cnc([O-])[nH]c1=O
active: dose: 5.0 mg/kg/injection, schedule: Q01DX Z (ip), vehicle: alkali diluted with saline 166 % of control | dose: 7.5 mg/kg/injection, schedule: Q01DX Z (ip), vehicle: alkali diluted with saline 177 % of control | dose: 10.0 mg/kg/injection, schedule: Q01DX Z (ip), vehicle: alkali diluted with saline 150 % of control
inactive: dose: 15.0 mg/kg/injection, schedule: Q01DX Z (ip), vehicle: alkali diluted with saline 95 % of control

Nc1nc(=S)c2ncn(C3OC(CO)C(O)C3O)c2[nH]1 (configuration not stated)
inactive: dose: 3.75 mg/kg/injection, schedule: Q01DX Z (ip), vehicle: carboxymethylcellulose (CMC) 96 % of control | dose: 5.0 mg/kg/injection, schedule: Q01DX Z (ip), vehicle: carboxymethylcellulose (CMC) 93 % of control | dose: 7.5 mg/kg/injection, schedule: Q01DX Z (ip), vehicle: carboxymethylcellulose (CMC) 107 % of control | dose: 10.0 mg/kg/injection, schedule: Q01DX Z (ip), vehicle: carboxymethylcellulose (CMC) 93 % of control

CSc1ncc(Br)c(Sc2nc(N)nc3nc[nH]c23)n1
inactive: dose: 3.12 mg/kg/injection, schedule: Q01DX Z (ip), vehicle: carboxymethylcellulose (CMC) 100 % of control | dose: 6.25 mg/kg/injection, schedule: Q01DX Z (ip), vehicle: carboxymethylcellulose (CMC) 95 % of control | dose: 12.5 mg/kg/injection, schedule: Q01DX Z (ip), vehicle: carboxymethylcellulose (CMC) 88 % of control

CCCNc1ncnc2[nH]ncc12
inactive: dose: 25.0 mg/kg/injection, schedule: Q01DX Z (ip), vehicle: saline 111 % of control

c1nc(SC2=NCCN2)c2[nH]cnc2n1
inactive: dose: 6.25 mg/kg/injection, schedule: Q01DX Z (ip), vehicle: saline 98 % of control | dose: 12.5 mg/kg/injection, schedule: Q01DX Z (ip), vehicle: saline 93 % of control

CN(C)[C@@H]1C(=O)C(C(=O)NCc2nc3[nH]cnc(=S)c3[nH]2)=C(O)[C@@]2(O)C(=O)C3=C(O)c4c(O)cccc4[C@@](C)(O)[C@H]3C[C@@H]12
inactive: dose: 50.0 mg/kg/injection, schedule: Q01DX009 (ip), vehicle: carboxymethylcellulose (CMC) 105 % of control | dose: 100.0 mg/kg/injection, schedule: Q01DX009 (ip), vehicle: carboxymethylcellulose (CMC) 104 % of control | dose: 400.0 mg/kg/injection, schedule: Q01DX009 (ip), vehicle: carboxymethylcellulose (CMC) 93 % of control

Nn1cnc2c(=S)nc[nH]c21
inactive: dose: 18.0 mg/kg/injection, schedule: Q01DX009 (ip), vehicle: other 98 % of control | dose: 28.0 mg/kg/injection, schedule: Q01DX009 (ip), vehicle: other 96 % of control | dose: 42.0 mg/kg/injection, schedule: Q01DX015 (ip), vehicle: other 99 % of control | dose: 72.0 mg/kg/injection, schedule: Q01DX015 (ip), vehicle: other 92 % of control

CC(C)Cn1cnc2c(Sc3c([N+](=O)[O-])ncn3C)nc(N)nc21
inactive: dose: 1.0 mg/kg/injection, schedule: Q01DX015 (ip), vehicle: other 94 % of control | dose: 2.0 mg/kg/injection, schedule: Q01DX015 (ip), vehicle: other 92 % of control | dose: 8.0 mg/kg/injection, schedule: Q01DX015 (ip), vehicle: other 95 % of control | dose: 12.5 mg/kg/injection, schedule: Q01DX015 (ip), vehicle: other 100 % of control | dose: 25.0 mg/kg/injection, schedule: Q01DX015 (ip), vehicle: other 97 % of control | dose: 50.0 mg/kg/injection, schedule: Q01DX015 (ip), vehicle: other 90 % of control

C1CN1c1nc(N2CC2)nc(N2CC2)n1
inactive: dose: 0.25 mg/kg/injection, schedule: Q01DX Z (ip), vehicle: saline 118 % of control | dose: 1.0 mg/kg/injection, schedule: Q01DX Z (ip), vehicle: saline 109 % of control

O=C(Nc1ccc(C2=NCCN2)cc1)c1ccc(C(=O)Nc2ccc(C3=NCCN3)cc2)c(Cl)c1
active: dose: 6.5 mg/kg/injection, schedule: Q01DX015 (ip), vehicle: carboxymethylcellulose (CMC) 253 % of control | dose: 8.7 mg/kg/injection, schedule: Q01DX015 (ip), vehicle: carboxymethylcellulose (CMC) 157 % of control | dose: 13.0 mg/kg/injection, schedule: Q02DX010 (ip), vehicle: carboxymethylcellulose (CMC) 191 % of control | dose: 15.0 mg/kg/injection, schedule: Q01DX010 (ip), vehicle: carboxymethylcellulose (CMC) 170 % of control | dose: 15.0 mg/kg/injection, schedule: Q01DX015 (ip), vehicle: carboxymethylcellulose (CMC) 168 % of control | dose: 20.0 mg/kg/injection, schedule: Q01DX010 (ip), vehicle: carboxymethylcellulose (CMC) 181 % of control | dose: 20.0 mg/kg/injection, schedule: Q01DX015 (ip), vehicle: carboxymethylcellulose (CMC) 166 % of control and 187 % of control | dose: 22.5 mg/kg/injection, schedule: Q01DX015 (ip), vehicle: carboxymethylcellulose (CMC) 154 % of control | dose: 26.0 mg/kg/injection, schedule: Q01DX015 (ip), vehicle: carboxymethylcellulose (CMC) 214 % of control | dose: 30.0 mg/kg/injection, schedule: Q02DX010 (ip), vehicle: carboxymethylcellulose (CMC) 223 % of control | dose: 45.0 mg/kg/injection, schedule: Q02DX010 (ip), vehicle: carboxymethylcellulose (CMC) 188 % of control
inactive: dose: 1.7 mg/kg/injection, schedule: Q01DX015 (ip), vehicle: carboxymethylcellulose (CMC) 110 % of control | dose: 2.6 mg/kg/injection, schedule: Q01DX015 (ip), vehicle: carboxymethylcellulose (CMC) 107 % of control | dose: 3.8 mg/kg/injection, schedule: Q01DX015 (ip), vehicle: carboxymethylcellulose (CMC) 97 % of control | dose: 4.4 mg/kg/injection, schedule: Q01DX015 (ip), vehicle: carboxymethylcellulose (CMC) 121 % of control | dose: 5.3 mg/kg/injection, schedule: Q01DX015 (ip), vehicle: carboxymethylcellulose (CMC) 89 % of control | dose: 7.0 mg/kg/injection, schedule: Q01DX015 (ip), vehicle: carboxymethylcellulose (CMC) 108 % of control | dose: 8.0 mg/kg/injection, schedule: Q01DX015 (ip), vehicle: carboxymethylcellulose (CMC) 122 % of control | dose: 12.0 mg/kg/injection, schedule: Q01DX015 (ip), vehicle: carboxymethylcellulose (CMC) 90 % of control | dose: 18.0 mg/kg/injection, schedule: Q01DX015 (ip), vehicle: carboxymethylcellulose (CMC) 108 % of control | dose: 27.0 mg/kg/injection, schedule: Q01DX015 (ip), vehicle: carboxymethylcellulose (CMC) 90 % of control

S=c1nc[nH]c2c1ncn2C1CCCC1
inactive: dose: 10.0 mg/kg/injection, schedule: Q01DX015 (ip), vehicle: carboxymethylcellulose (CMC) 95 % of control | dose: 10.0 mg/kg/injection, schedule: Q01DX015 (ip), vehicle: saline 100 % of control | dose: 30.0 mg/kg/injection, schedule: Q01DX015 (ip), vehicle: carboxymethylcellulose (CMC) 98 % of control | dose: 50.0 mg/kg/injection, schedule: Q01DX015 (ip), vehicle: carboxymethylcellulose (CMC) 97 % of control | dose: 50.0 mg/kg/injection, schedule: Q01DX015 (ip), vehicle: saline 93 % of control

CCCCCCCSc1ncnc2c1ncn2CO
inactive: dose: 150.0 mg/kg/injection, schedule: Q01DX009 (ip), vehicle: other 96 % of control | dose: 200.0 mg/kg/injection, schedule: Q01DX009 (ip), vehicle: other 95 % of control | dose: 300.0 mg/kg/injection, schedule: Q01DX009 (ip), vehicle: other 100 % of control | dose: 400.0 mg/kg/injection, schedule: Q01DX009 (ip), vehicle: other 86 % of control
